Assay results published in ChEMBL document CHEMBL5463727, “Data for DCP probe SGK3-PROTAC1” (2023).
The source made the active and inactive calls. The calls are words filed in the database; no cut-off is given here.

Columns and labels:
[1] = target: Ephrin type-B receptor 3 (Homo sapiens) (UniProt P54753); assay: % Activity remaining of EPH-B3 in the Dundee kinase panel at 1.0 µM; conditions: Compound concentration 1.0 uM
[2] = target: Serine/threonine-protein kinase Sgk1 (Homo sapiens, UniProt O00141); assay: (§1) % Activity remaining of SGK1 in the Dundee kinase panel at 1.0 µM
[3] = target: T1, Serine/threonine-protein kinase Sgk1 (Homo sapiens) (UniProt O00141); assay: as §1; conditions: Compound concentration 1.0 uM
T1 sequence (whole entry): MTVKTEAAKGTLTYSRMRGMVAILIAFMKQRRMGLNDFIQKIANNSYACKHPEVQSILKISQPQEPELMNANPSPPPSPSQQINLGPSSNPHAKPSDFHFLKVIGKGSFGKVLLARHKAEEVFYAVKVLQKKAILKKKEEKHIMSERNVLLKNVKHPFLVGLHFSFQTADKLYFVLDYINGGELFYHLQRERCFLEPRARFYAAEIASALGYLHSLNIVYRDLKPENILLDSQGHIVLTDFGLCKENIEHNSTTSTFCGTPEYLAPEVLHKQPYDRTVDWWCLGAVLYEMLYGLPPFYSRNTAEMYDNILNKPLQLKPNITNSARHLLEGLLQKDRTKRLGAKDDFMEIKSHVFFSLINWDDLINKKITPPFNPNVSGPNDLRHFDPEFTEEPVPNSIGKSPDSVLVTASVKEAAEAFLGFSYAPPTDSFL

[4] = target: High affinity nerve growth factor receptor (Homo sapiens) (UniProt P04629); assay: % Activity remaining of TrkA in the Dundee kinase panel at 1.0 µM; conditions: Compound concentration 1.0 uM
[5] = target: Calcium/calmodulin-dependent protein kinase kinase 2 (Homo sapiens) (UniProt Q96RR4); assay: % Activity remaining of CAMKK beta in the Dundee kinase panel at 1.0 µM; conditions: Compound concentration 1.0 uM
[6] = target: Mitogen-activated protein kinase 7 (Homo sapiens) (UniProt Q13164); assay: % Activity remaining of ERK5 in the Dundee kinase panel at 1.0 µM; conditions: Compound concentration 1.0 uM
[7] = target: Ribosomal protein S6 kinase beta-1 (Homo sapiens, UniProt P23443); assay: % Activity remaining of S6K1 in the Dundee kinase panel at 1.0 µM; conditions: for % Activity remaining: Compound concentration 1.0 uM
[8] = target: MAP/microtubule affinity-regulating kinase 3 (Homo sapiens) (UniProt P27448); assay: % Activity remaining of MARK3 in the Dundee kinase panel at 1.0 µM; conditions: Compound concentration 1.0 uM
[9] = target: Mitogen-activated protein kinase kinase kinase 11 (Homo sapiens) (UniProt Q16584); assay: % Activity remaining of MLK3 in the Dundee kinase panel at 1.0 µM; conditions: Compound concentration 1.0 uM
[10] = target: Interleukin-1 receptor-associated kinase 4 (Homo sapiens) (UniProt Q9NWZ3); assay: % Activity remaining of IRAK4 in the Dundee kinase panel at 1.0 µM; conditions: Compound concentration 1.0 uM
[11] = target: Mitogen-activated protein kinase kinase kinase kinase 2 (Homo sapiens) (UniProt Q12851); assay: % Activity remaining of GCK in the Dundee kinase panel at 1.0 µM; conditions: Compound concentration 1.0 uM
[12] = target: Mitogen-activated protein kinase 10 (Homo sapiens) (UniProt P53779); assay: % Activity remaining of JNK3 in the Dundee kinase panel at 1.0 µM; conditions: Compound concentration 1.0 uM
[13] = target: Serine/threonine-protein kinase OSR1 (Homo sapiens) (UniProt O95747); assay: % Activity remaining of OSR1 in the Dundee kinase panel at 1.0 µM; conditions: Compound concentration 1.0 uM
[14] = target: Dual specificity mitogen-activated protein kinase kinase 1 (Homo sapiens) (UniProt Q02750); assay: % Activity remaining of MKK1 in the Dundee kinase panel at 1.0 µM; conditions: Compound concentration 1.0 uM
[15] = target: Mitogen-activated protein kinase 3 (Homo sapiens) (UniProt P27361); assay: % Activity remaining of ERK1 in the Dundee kinase panel at 1.0 µM; conditions: Compound concentration 1.0 uM
[16] = target: Dual specificity testis-specific protein kinase 1 (Homo sapiens) (UniProt Q15569); assay: % Activity remaining of TESK1 in the Dundee kinase panel at 1.0 µM; conditions: Compound concentration 1.0 uM
[17] = target: Receptor tyrosine-protein kinase erbB-4 (Homo sapiens) (UniProt Q15303); assay: % Activity remaining of HER4 in the Dundee kinase panel at 1.0 µM; conditions: Compound concentration 1.0 uM
[18] = target: Serine/threonine-protein kinase pim-1 (Homo sapiens) (UniProt P11309); assay: % Activity remaining of PIM1 in the Dundee kinase panel at 1.0 µM; conditions: Compound concentration 1.0 uM
[19] = target: Tau-tubulin kinase 1 (Homo sapiens) (UniProt Q5TCY1); assay: % Activity remaining of TTBK1 in the Dundee kinase panel at 1.0 µM; conditions: Compound concentration 1.0 uM
[20] = target: Serine/threonine-protein kinase Sgk3 (Homo sapiens, UniProt Q96BR1); assay: SGK3 radioactive filter binding assay using 33P ATP (Dundee kinase screen)
[21] = target: Fibroblast growth factor receptor 1 (Homo sapiens) (UniProt P11362); assay: % Activity remaining of FGF-R1 in the Dundee kinase panel at 1.0 µM; conditions: Compound concentration 1.0 uM
[22] = target: Mitogen-activated protein kinase 14 (Homo sapiens) (UniProt Q16539); assay: % Activity remaining of p38 alpha MAPK in the Dundee kinase panel at 1.0 µM; conditions: Compound concentration 1.0 uM
[23] = target: Dual specificity mitogen-activated protein kinase kinase 6 (Homo sapiens) (UniProt P52564); assay: % Activity remaining of MKK6 in the Dundee kinase panel at 1.0 µM; conditions: Compound concentration 1.0 uM
[24] = target: Ephrin type-B receptor 1 (Homo sapiens) (UniProt P54762); assay: % Activity remaining of EPH-B1 in the Dundee kinase panel at 1.0 µM; conditions: Compound concentration 1.0 uM
[25] = target: Serine/threonine-protein kinase PAK 5 (Homo sapiens) (UniProt Q9P286); assay: % Activity remaining of PAK5 in the Dundee kinase panel at 1.0 µM; conditions: Compound concentration 1.0 uM
[26] = target: Aurora kinase A (Homo sapiens) (UniProt O14965); assay: % Activity remaining of Aurora A in the Dundee kinase panel at 1.0 µM; conditions: Compound concentration 1.0 uM
[27] = target: Receptor-interacting serine/threonine-protein kinase 2 (Homo sapiens) (UniProt O43353); assay: % Activity remaining of RIPK2 in the Dundee kinase panel at 1.0 µM; conditions: Compound concentration 1.0 uM
[28] = target: Mitogen-activated protein kinase kinase kinase 7 (Homo sapiens) (UniProt O43318); assay: % Activity remaining of TAK1 in the Dundee kinase panel at 1.0 µM; conditions: Compound concentration 1.0 uM
[29] = target: Calcium/calmodulin-dependent protein kinase type 1 (Homo sapiens) (UniProt Q14012); assay: % Activity remaining of CAMK1 in the Dundee kinase panel at 1.0 µM; conditions: Compound concentration 1.0 uM
[30] = target: Insulin receptor-related protein (Homo sapiens) (UniProt P14616); assay: % Activity remaining of IRR in the Dundee kinase panel at 1.0 µM; conditions: Compound concentration 1.0 uM
[31] = target: Serine/threonine-protein kinase MARK2 (Homo sapiens) (UniProt Q7KZI7); assay: % Activity remaining of MARK2 in the Dundee kinase panel at 1.0 µM; conditions: Compound concentration 1.0 uM
[32] = target: Mitogen-activated protein kinase kinase kinase kinase 3 (Homo sapiens) (UniProt Q8IVH8); assay: % Activity remaining of MAP4K3 in the Dundee kinase panel at 1.0 µM; conditions: Compound concentration 1.0 uM
[33] = target: Serine/threonine-protein kinase 33 (Homo sapiens) (UniProt Q9BYT3); assay: % Activity remaining of STK33 in the Dundee kinase panel at 1.0 µM; conditions: Compound concentration 1.0 uM
[34] = target: Casein kinase I isoform gamma-2 (Homo sapiens) (UniProt P78368); assay: % Activity remaining of CK1 gamma 2 in the Dundee kinase panel at 1.0 µM; conditions: Compound concentration 1.0 uM

Sequence of Receptor tyrosine-protein kinase erbB-4 (Homo sapiens) (Q15303 whole entry): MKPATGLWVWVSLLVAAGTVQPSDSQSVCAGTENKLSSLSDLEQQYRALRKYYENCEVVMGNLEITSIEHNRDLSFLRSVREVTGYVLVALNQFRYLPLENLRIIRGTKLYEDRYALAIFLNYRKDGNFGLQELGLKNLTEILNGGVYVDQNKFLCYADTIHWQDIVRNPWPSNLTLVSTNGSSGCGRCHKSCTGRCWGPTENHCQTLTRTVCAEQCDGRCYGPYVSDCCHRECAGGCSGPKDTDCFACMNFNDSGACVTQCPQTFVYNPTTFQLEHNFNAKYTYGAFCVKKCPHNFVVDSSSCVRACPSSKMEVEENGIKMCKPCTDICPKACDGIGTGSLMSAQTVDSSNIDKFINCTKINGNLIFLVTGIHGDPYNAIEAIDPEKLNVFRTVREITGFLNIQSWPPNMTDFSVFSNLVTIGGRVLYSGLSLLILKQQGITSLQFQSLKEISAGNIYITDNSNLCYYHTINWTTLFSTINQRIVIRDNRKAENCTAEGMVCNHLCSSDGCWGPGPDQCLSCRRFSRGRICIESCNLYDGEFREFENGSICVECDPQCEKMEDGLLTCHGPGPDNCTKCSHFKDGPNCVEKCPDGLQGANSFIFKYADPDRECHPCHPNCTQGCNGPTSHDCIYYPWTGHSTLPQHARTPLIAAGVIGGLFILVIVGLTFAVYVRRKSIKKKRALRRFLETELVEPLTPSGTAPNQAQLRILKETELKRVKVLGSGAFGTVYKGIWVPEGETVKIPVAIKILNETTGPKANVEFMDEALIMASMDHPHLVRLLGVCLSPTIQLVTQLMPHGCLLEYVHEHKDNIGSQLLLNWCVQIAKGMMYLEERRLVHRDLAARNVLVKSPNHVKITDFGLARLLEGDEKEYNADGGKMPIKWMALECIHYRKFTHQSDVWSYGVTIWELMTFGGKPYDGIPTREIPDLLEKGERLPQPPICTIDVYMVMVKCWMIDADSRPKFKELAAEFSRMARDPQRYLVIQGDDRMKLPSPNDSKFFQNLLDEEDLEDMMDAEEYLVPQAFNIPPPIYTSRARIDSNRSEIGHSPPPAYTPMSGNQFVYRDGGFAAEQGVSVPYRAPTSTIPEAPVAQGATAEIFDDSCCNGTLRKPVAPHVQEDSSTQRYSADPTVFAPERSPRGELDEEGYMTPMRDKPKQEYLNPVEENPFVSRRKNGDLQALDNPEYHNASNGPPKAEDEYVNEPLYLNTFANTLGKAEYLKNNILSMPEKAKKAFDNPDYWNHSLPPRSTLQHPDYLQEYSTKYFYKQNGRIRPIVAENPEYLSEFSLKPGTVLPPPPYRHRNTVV
Sequence of Tau-tubulin kinase 1 (Homo sapiens) (Q5TCY1 whole entry): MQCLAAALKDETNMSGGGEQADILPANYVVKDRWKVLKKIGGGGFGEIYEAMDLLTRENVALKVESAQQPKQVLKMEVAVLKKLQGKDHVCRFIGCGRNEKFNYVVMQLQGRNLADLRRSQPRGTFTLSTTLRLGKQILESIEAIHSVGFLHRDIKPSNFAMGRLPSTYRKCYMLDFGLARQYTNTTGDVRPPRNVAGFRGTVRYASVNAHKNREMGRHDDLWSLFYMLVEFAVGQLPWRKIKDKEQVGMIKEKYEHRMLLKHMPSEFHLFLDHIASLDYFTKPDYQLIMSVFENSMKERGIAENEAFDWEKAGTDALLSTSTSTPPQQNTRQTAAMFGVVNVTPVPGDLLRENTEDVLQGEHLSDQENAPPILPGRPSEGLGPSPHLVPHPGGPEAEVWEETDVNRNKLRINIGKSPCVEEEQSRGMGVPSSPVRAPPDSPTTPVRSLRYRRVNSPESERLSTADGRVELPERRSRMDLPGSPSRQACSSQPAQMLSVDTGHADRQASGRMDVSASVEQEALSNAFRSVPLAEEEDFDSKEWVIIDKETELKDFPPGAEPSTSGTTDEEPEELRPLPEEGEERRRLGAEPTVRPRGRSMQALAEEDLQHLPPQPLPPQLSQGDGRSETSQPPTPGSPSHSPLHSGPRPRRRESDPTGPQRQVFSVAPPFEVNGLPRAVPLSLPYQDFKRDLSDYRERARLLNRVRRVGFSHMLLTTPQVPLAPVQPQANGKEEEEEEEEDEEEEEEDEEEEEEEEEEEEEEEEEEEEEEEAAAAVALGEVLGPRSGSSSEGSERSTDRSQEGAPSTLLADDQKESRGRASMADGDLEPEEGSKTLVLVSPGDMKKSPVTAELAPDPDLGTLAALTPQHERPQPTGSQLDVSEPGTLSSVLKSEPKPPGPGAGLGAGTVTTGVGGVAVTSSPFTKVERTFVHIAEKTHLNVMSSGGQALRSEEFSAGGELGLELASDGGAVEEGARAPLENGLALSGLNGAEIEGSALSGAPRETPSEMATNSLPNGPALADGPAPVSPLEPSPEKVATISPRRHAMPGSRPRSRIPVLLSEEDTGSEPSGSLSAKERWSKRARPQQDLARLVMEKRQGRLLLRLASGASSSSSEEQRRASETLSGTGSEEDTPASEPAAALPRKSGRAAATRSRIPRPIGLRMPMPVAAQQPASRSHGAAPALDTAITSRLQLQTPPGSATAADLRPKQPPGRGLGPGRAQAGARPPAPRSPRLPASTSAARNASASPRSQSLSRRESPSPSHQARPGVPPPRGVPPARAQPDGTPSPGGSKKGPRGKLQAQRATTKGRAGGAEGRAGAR
Sequence of Insulin receptor-related protein (Homo sapiens) (P14616 27-742 limits assumed): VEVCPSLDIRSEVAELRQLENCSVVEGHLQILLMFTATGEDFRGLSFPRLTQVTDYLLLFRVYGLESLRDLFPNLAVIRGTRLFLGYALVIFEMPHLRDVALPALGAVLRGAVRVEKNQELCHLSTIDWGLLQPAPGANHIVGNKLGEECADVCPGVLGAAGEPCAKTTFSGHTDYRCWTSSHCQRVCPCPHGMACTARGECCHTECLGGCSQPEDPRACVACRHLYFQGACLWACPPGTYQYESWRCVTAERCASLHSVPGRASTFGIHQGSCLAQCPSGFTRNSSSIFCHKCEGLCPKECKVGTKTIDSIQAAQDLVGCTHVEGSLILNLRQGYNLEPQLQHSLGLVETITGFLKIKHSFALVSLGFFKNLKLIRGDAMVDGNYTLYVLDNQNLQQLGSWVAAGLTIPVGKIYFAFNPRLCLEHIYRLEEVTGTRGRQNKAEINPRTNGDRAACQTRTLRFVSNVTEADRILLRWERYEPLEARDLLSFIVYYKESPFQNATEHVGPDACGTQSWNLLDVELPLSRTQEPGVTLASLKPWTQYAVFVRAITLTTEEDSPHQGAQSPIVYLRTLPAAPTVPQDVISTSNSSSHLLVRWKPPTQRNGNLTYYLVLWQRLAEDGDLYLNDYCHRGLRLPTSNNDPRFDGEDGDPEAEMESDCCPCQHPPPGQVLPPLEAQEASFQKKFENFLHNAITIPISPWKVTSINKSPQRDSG
Sequence of Insulin receptor-related protein (Homo sapiens) (P14616 747-1297 limits assumed): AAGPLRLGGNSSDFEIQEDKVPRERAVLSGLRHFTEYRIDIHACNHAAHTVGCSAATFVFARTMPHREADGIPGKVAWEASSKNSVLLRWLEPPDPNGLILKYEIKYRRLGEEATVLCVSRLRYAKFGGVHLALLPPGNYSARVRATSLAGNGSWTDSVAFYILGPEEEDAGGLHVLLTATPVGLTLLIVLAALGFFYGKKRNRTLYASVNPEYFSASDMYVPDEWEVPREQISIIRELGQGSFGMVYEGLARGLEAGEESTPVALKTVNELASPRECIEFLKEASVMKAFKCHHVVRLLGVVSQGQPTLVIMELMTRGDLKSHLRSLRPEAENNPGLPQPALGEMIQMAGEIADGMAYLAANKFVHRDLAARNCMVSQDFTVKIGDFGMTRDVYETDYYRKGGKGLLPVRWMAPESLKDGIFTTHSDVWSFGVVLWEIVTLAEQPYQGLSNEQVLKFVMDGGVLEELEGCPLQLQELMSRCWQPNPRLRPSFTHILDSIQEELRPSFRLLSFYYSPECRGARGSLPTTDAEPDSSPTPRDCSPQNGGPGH
Sequence of Receptor-interacting serine/threonine-protein kinase 2 (Homo sapiens) (O43353 whole entry): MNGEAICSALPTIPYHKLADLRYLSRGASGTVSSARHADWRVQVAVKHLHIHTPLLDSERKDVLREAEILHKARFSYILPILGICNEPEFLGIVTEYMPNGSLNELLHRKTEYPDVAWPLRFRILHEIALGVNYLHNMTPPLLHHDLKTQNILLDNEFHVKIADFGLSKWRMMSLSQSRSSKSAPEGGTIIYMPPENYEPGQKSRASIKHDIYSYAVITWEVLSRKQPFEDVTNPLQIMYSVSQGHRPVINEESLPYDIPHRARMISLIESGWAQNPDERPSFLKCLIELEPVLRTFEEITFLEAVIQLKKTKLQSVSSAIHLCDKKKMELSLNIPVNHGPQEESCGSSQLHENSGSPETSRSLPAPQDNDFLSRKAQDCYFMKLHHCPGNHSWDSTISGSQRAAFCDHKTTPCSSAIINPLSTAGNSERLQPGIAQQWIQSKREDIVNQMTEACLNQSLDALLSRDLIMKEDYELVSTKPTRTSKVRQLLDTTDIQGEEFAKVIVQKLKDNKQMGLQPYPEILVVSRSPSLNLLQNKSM
Sequence of Dual specificity testis-specific protein kinase 1 (Homo sapiens) (Q15569 whole entry, looked up): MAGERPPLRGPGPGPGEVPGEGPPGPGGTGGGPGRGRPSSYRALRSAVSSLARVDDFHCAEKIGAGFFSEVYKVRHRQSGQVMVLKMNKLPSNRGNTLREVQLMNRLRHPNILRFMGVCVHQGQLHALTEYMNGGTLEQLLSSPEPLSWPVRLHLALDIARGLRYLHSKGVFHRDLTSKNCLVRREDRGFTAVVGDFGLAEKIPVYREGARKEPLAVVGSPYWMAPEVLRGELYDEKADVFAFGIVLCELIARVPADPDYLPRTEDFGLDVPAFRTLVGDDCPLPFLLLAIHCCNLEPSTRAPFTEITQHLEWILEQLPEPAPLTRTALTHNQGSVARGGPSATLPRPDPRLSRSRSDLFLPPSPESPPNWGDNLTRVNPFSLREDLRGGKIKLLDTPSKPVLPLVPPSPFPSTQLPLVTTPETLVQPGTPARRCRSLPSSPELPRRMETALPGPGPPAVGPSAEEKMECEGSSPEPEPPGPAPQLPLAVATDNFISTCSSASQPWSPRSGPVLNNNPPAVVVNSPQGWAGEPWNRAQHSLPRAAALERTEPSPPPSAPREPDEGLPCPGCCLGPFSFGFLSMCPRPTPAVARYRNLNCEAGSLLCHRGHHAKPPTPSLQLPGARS

| % Activity remaining [1] [%] | IC50 [2] [nM] | % Activity remaining [3] [%] | % Activity remaining [4] [%] | % Activity remaining [5] [%] | % Activity remaining [6] [%] | IC50 [7] [nM] | % Activity remaining [7] [%] | % Activity remaining [8] [%] | % Activity remaining [9] [%] | % Activity remaining [10] [%] | % Activity remaining [11] [%] | % Activity remaining [12] [%] | % Activity remaining [13] [%] | % Activity remaining [14] [%] | % Activity remaining [15] [%] | % Activity remaining [16] [%] | % Activity remaining [17] [%] | % Activity remaining [18] [%] | % Activity remaining [19] [%] | SMILES | also measured |
| --- | --- | --- | --- | --- | --- | --- | --- | --- | --- | --- | --- | --- | --- | --- | --- | --- | --- | --- | --- | --- | --- |
| 91.6 | 220 | 34.5 | 112 | 98.9 | 102 | 1800 | 19 | 98.4 | 70.5 | 114 | 99 | 92.1 | 103 | 106 | 103 | 122 | 92 | 94.5 | 105 | Cc1ccc(F)c(S(=O)(=O)Nc2ccc(-c3nc(OC[C@H]4CN(CCCCCCOCCOCCOCC(=O)N[C@H](C(=O)N5C[C@H](O)C[C@H]5C(=O)NCc5ccc(-c6scnc6C)cc5)C(C)(C)C)CCO4)c4cn[nH]c4n3)cc2)c1 | IC50 [20]: 300 nM (active); % Activity remaining [21]: 108%; % Activity remaining [22]: 125%; % Activity remaining [23]: 123%; % Activity remaining [24]: 99.9%; % Activity remaining [25]: 87.6%; % Activity remaining [26]: 90.3%; % Activity remaining [27]: 88.4%; % Activity remaining [28]: 108%; % Activity remaining [29]: 86.3%; % Activity remaining [30]: 103%; % Activity remaining [31]: 102%; % Activity remaining [32]: 98.8%; % Activity remaining [33]: 110%; % Activity remaining [34]: 101% |
| 104 | 1400 | 50.9 | 102 | 108 | 108 | 1700 | 20.2 | 109 | 75.6 | 98 | 96.3 | 82.5 | 118 | 102 | 101 | 120 | 103 | 96.5 | 113 | Cc1ccc(F)c(S(=O)(=O)Nc2ccc(-c3nc(OC[C@H]4CN(CCCCCCOCCOCCOCC(=O)N[C@H](C(=O)N5C[C@@H](O)C[C@H]5C(=O)NCc5ccc(-c6scnc6C)cc5)C(C)(C)C)CCO4)c4cn[nH]c4n3)cc2)c1 | IC50 [20]: 600 nM (not active); % Activity remaining [21]: 106%; % Activity remaining [22]: 109%; % Activity remaining [23]: 108%; % Activity remaining [24]: 108%; % Activity remaining [25]: 105%; % Activity remaining [26]: 91.4%; % Activity remaining [27]: 94.2%; % Activity remaining [28]: 107%; % Activity remaining [29]: 105%; % Activity remaining [30]: 89.9%; % Activity remaining [31]: 112%; % Activity remaining [32]: 95.5%; % Activity remaining [33]: 109%; % Activity remaining [34]: 106% |
